# From publication PMC6277767, “Broad and Region-Specific Impacts of the Synthetic Cannabinoid CP 55,940 in Adolescent and Adult Female Mouse Brains” (Frontiers in Molecular Neuroscience, 2018)
# Test system: CD1 female mouse brain lipidome
# Experiment: Brain-region lipid levels (HPLC/MS/MS lipidomics) 2 h after single i.p. 3 mg/kg CP 55,940 vs vehicle
# Format: in vivo
# Set-up: N-arachidonoyl phenylalanine level, Mean / N-stearoyl tryptophan level, Mean / N-stearoyl proline level, Mean / N-stearoyl leucine level, Mean / N-stearoyl phenylalanine level, Mean / N-stearoyl serine level, Mean / N-stearoyl methionine level, Mean: unit: moles per gram
# Method: The Bloomington Institutional Animal Care and Use Committee of Indiana University reviewed and approved the animal procedures. Female mice from the CD1 strain were utilized to match our study examining THC’s effects on the brain lipidome ([Leishman et al., 2018]). Mice were given a single i.p. injection of either 3 mg/kg CP or 1:1:18 cremophor:ethanol:saline vehicle (please refer to the section “3 mg/kg CP Is Relevant for Synthetic Cannabinoid Abuse and Has Stronger Effects on the Female Mouse Brain Lipidome During Adolescence” for a justification of dose and use of female mice). Three different age groups were given injections: PND 35 and PND 50 adolescents, and adult mice (PND 113). At least eight mice in each age group received CP and at least eight received vehicle. Matching the THC study time course ([Leishman et al., 2018]), mice were sacrificed via rapid decapitation 2 h after injection. Brains were immediately removed and flash-frozen in liquid nitrogen, and then stored at -80°C until dissections were performed. Brains were dissected on an ice-cold dissection plate into the following regions: STR, HIPP, CER, THAL, CTX, HYP, MID, and STEM. These abbreviations for these brain areas will be used exclusively when discussing the results generated by these specific dissections. Each dissected area was immediately placed in liquid nitrogen and then stored at -80°C until used for lipid extraction.
# Tissue extracts were performed as previously described ([Bradshaw et al., 2006]; [Stuart et al., 2013]; [Raboune et al., 2014]; [Leishman et al., 2016a],[b], [2017], [2018]). First, samples were shock frozen in liquid nitrogen, weighed, and transferred to a centrifuge tube. The mass of the largest sample was multiplied by 50 to determine how many milliliters of HPLC-grade methanol (Fisher, Fair Lawn, NJ, United States) to add. Then, samples were spiked with 500 pmol deuterium-labeled NAGly (d8NAGly; Cayman Chemical, Ann Arbor, MI, United States). Samples were placed on ice in darkness for 2 h then individually homogenized and centrifuged at 19,000 × g for 20 min at 20°C. Supernatants were diluted with HPLC water (purified in house) to make a solution of 75% water, 25% supernatant. Lipids were partially purified on C18 solid phase extraction columns (Agilent, Palo Alto, CA, United States). A series of four elutions with 1.5 mL of 60%, 75%, 85%, and 100% methanol were collected ([Stuart et al., 2013]; [Leishman et al., 2016a],[b], [2018]).
# As previously described ([Bradshaw et al., 2006]; [Tan et al., 2006]; [Smoum et al., 2010]; [Stuart et al., 2013]; [Tortoriello et al., 2013]; [Raboune et al., 2014]; [Leishman et al., 2016a],[b], [2017], [2018]), samples were analyzed using an Applied Biosystems API 3000 triple quadrupole mass spectrometer with electrospray ionization (Foster City, CA, United States). Using an Agilent XDB-C18 reversed phase analytical column and optimized mobile phase gradients, 20 μL from each elution were chromatographed. Two Shimadzu 10ADvp pumps (Columbia, MD, United States) provided the pressure for gradient elution. Mobile phase A: 20% methanol, 80% water (v/v) and 1 mM ammonium acetate (Sigma, St. Louis, MO, United States). Mobile phase B: 100% methanol, 1 mM ammonium acetate. Every method run began with 0% mobile phase B, reached 100% mobile phase B flowing at 0.2 mL/min, and gradually returned to 0% mobile phase B.
# This screening library will be referred to as the lipidome when discussing data from this study. HPLC/MS/MS data were analyzed using Analyst software (Applied Biosystems) ([Bradshaw et al., 2006]; [Tan et al., 2006]; [Stuart et al., 2013]; [Tortoriello et al., 2013]; [Raboune et al., 2014]; [Leishman et al., 2016a],[b], [2017], [2018]). Chromatograms (Supplementary Figure 3) were generated by determining the retention time of analytes from the analytical column with a [M-1] or [M+1] parent peak and a fragmentation peak corresponding to the programmed values. […]
# [1] = hippocampus, PND 35 WT female mice, 3mg/kg CP 55,940
# [2] = hypothalamus, PND 50, 3mg/kg CP 55,940
# [3] = hypothalamus, PND 50 female mice, 3mg/kg CP 55,940
smiles,measurement,setting,value
"CCCCCCC(C)(C)c1ccc([C@@H]2C[C@H](O)CC[C@H]2CCCO)c(O)c1 [CP 55,940]","N-arachidonoyl tryptophan level, Mean",[1],BDL
same,"N-arachidonoyl tyrosine level, Mean",[1],7.88E-13
same,"N-docosahexaenoyl GABA level, Mean",[1],9.2E-13
same,"N-docosahexaenoyl alanine level, Mean",[1],5.16E-12
same,"N-docosahexaenoyl ethanolamine level, Mean",[1],3.15E-11
same,"N-docosahexaenoyl glycine level, Mean",[1],1.89E-11
same,"N-docosahexaenoyl leucine level, Mean",[1],7.64E-13
same,"N-docosahexaenoyl methionine level, Mean",[1],BDL
same,"N-docosahexaenoyl phenylalanine level, Mean",[1],1.25E-12
same,"N-docosahexaenoyl proline level, Mean",[1],BDL
same,"N-docosahexaenoyl serine level, Mean",[1],2.42E-11
same,"N-docosahexaenoyl tryptophan level, Mean",[1],BDL
same,"N-docosahexaenoyl tyrosine level, Mean",[1],PISSR
same,"N-docosahexaenoyl valine level, Mean",[1],PISSR
same,"N-linoleoyl GABA level, Mean",[1],4.99E-13
same,"N-linoleoyl alanine level, Mean",[1],2.58E-12
same,"N-linoleoyl ethanolamine level, Mean",[1],6.76E-11
same,"N-linoleoyl glycine level, Mean",[1],5.29E-12
same,"N-linoleoyl leucine level, Mean",[1],3.89E-13
same,"N-linoleoyl methionine level, Mean",[1],BDL
same,"N-linoleoyl phenylalanine level, Mean",[1],2.51E-13
same,"N-linoleoyl proline level, Mean",[1],BDL
same,"N-linoleoyl serine level, Mean",[1],8.04E-11
same,"N-linoleoyl tryptophan level, Mean",[1],BDL
same,"N-linoleoyl tyrosine level, Mean",[1],PISSR
same,"N-linoleoyl valine level, Mean",[1],PISSR
same,"N-nervonoyl valine level, Mean",[1],BDL
same,"N-oleoyl GABA level, Mean",[1],2.89E-12
same,"N-oleoyl alanine level, Mean",[1],1.01E-11
same,"N-oleoyl dopamine level, Mean",[1],BDL
same,"N-oleoyl ethanolamine level, Mean",[1],1.48E-10
same,"N-oleoyl glycine level, Mean",[1],2.1E-11
same,"N-oleoyl leucine level, Mean",[1],1.71E-12
same,"N-oleoyl methionine level, Mean",[1],8.45E-13
same,"N-oleoyl phenylalanine level, Mean",[1],1.23E-12
same,"N-oleoyl proline level, Mean",[1],PISSR
same,"N-oleoyl serine level, Mean",[1],3.91E-10
same,"N-oleoyl tryptophan level, Mean",[1],PISSR
same,"N-oleoyl tyrosine level, Mean",[1],3.7E-13
same,"N-oleoyl valine level, Mean",[1],7.17E-13
same,"N-palmitoyl GABA level, Mean",[1],5.66E-12
same,"N-palmitoyl alanine level, Mean",[1],1.96E-11
same,"N-palmitoyl ethanolamine level, Mean",[1],6.04E-11
same,"N-palmitoyl glycine level, Mean",[1],4.65E-11
same,"N-palmitoyl leucine level, Mean",[1],4.19E-12
same,"N-palmitoyl methionine level, Mean",[1],PISSR
same,"N-palmitoyl phenylalanine level, Mean",[1],2.85E-12
same,"N-palmitoyl proline level, Mean",[1],1.75E-12
same,"N-palmitoyl serine level, Mean",[1],7.46E-11
same,"N-palmitoyl tryptophan level, Mean",[1],4.02E-13
same,"N-palmitoyl tyrosine level, Mean",[1],1.11E-12
same,"N-palmitoyl valine level, Mean",[1],1.58E-12
same,"N-stearoyl GABA level, Mean",[1],5.59E-12
same,"N-stearoyl alanine level, Mean",[1],1.75E-11
same,"N-stearoyl ethanolamine level, Mean",[1],1.72E-11
same,"N-stearoyl glycine level, Mean",[1],2.5E-11
same,"N-stearoyl leucine level, Mean",[1],1.77E-12
same,"N-stearoyl methionine level, Mean",[1],1.74E-12
same,"N-stearoyl phenylalanine level, Mean",[1],2.56E-12
same,"N-stearoyl serine level, Mean",[1],3.13E-11
same,"N-stearoyl tryptophan level, Mean",[1],1.25E-12
same,"N-stearoyl tyrosine level, Mean",[1],1.27E-13
same,"Oleic acid level, Mean",[1],2.69E-09
same,"PGE2 level, Mean",[1],1.12E-09
same,"PhosphoLEA level, Mean",[1],2.75E-11
same,"THC level, Mean",[1],BDL
same,"2-arachidonoyl glycerol, Direction (relative to Veh)",[2],↓
same,"N-arachidonoyl phenylalanine, Direction (relative to Veh)",[2],↓
same,"N-palmitoyl leucine, Direction (relative to Veh)",[2],↑
same,PGF2α Direction (relative to Veh),[2],↑
same,PGF2α Magnitude (x Veh level),"hypothalamus, PND 50, 3mg/kg CP 55,940, ANOVA p .005",1.49 x Veh level
same,"N-arachidonoyl phenylalanine, Magnitude (x Veh level)","hypothalamus, PND 50, 3mg/kg CP 55,940, ANOVA p .013",0.70 x Veh level
same,"N-palmitoyl leucine, Magnitude (x Veh level)","hypothalamus, PND 50, 3mg/kg CP 55,940, ANOVA p .022",1.34 x Veh level
same,"2-arachidonoyl glycerol, Magnitude (x Veh level)","hypothalamus, PND 50, 3mg/kg CP 55,940, ANOVA p .033",0.80 x Veh level
same,"2-arachidonoyl glycerol level, Mean",[3],2.57E-10
same,"2-linoleoyl glycerol level, Mean",[3],1E-10
same,"2-oleoyl glycerol level, Mean",[3],1.24E-09
same,"2-palmitoyl glycerol level, Mean",[3],2.63E-09
same,"6-ketoPGF1α level, Mean",[3],1.26E-11
same,"11-OH-THC level, Mean",[3],BDL
same,"11-nor-9-carboxyTHC level, Mean",[3],BDL
same,"Arachidonic acid level, Mean",[3],1.92E-10
same,"Cannabidiol level, Mean",[3],BDL
same,"Linoleic acid level, Mean",[3],1.86E-10
same,"N- stearoyl valine level, Mean",[3],PISSR
same,"N-arachidonoyl GABA level, Mean",[3],6.6E-12
same,"N-arachidonoyl alanine level, Mean",[3],PISSR
same,"N-arachidonoyl dopamine level, Mean",[3],BDL
same,"N-arachidonoyl ethanolamine level, Mean",[3],2.54E-11
same,"N-arachidonoyl glycine level, Mean",[3],4.44E-13
same,"N-arachidonoyl methionine level, Mean",[3],BDL
same,"N-arachidonoyl phenylalanine level, Mean",[3],3.4E-13
same,"N-arachidonoyl proline level, Mean",[3],BDL
same,"N-arachidonoyl serine level, Mean",[3],PISSR
same,"N-arachidonoyl taurine level, Mean",[3],6.54E-12
same,"N-arachidonoyl tryptophan level, Mean",[3],BDL
same,"N-arachidonoyl tyrosine level, Mean",[3],BDL
same,"N-docosahexaenoyl GABA level, Mean",[3],PISSR
same,"N-docosahexaenoyl alanine level, Mean",[3],PISSR
same,"N-docosahexaenoyl ethanolamine level, Mean",[3],3.64E-11
same,"N-docosahexaenoyl glycine level, Mean",[3],1.54E-13
same,"N-docosahexaenoyl leucine level, Mean",[3],PISSR
